# Reference: ChEMBL document CHEMBL1201862, “PubChem BioAssay data set” (2004)
# Active and inactive are the calls of the source.
# Tests used:
# [1] = biological target: Muscarinic acetylcholine receptor M1 (Rattus norvegicus, UniProt P08482); experiment: concentration-dependent potentiation of ACh at M1 – cell-based, calcium mobilization, CHO-K1, ACh EC20, dose response (AID 2425); type: functional
# Bcl-2-related protein A1 [2] = biological target: T1, Bcl-2-related protein A1 (Mus musculus, UniProt Q07440); experiment: displacement of Bid BH3 peptide from Bfl-1 – biochemical, fluorescence polarization, FITC-Bid, mouse, primary screen (AID 432)
# T1 sequence (Q07440 whole entry): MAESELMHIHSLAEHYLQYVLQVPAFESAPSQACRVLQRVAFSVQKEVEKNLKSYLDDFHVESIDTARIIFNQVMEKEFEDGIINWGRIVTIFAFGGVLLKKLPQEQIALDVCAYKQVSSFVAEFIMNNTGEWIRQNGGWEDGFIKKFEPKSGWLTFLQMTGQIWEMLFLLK
# Bcl-2-related protein A1 [3] = biological target: T1, Bcl-2-related protein A1; experiment: small-molecule antagonists of Bfl-1/BH3 interaction – biochemical, TR-FRET, mouse Bfl-1, confirmation (AID 621);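 further: TR-FRET binding of GST-Bfl-1 to FITC-labelled Bid peptide via terbium antibody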
# Leucine aminopeptidase = biological target: T2, Leucine aminopeptidase (Plasmodium falciparum 3D7, UniProt Q8IL11); experiment: P. falciparum M17LAP inhibitors, primary screen, biochemical, fluorogenic H-Leu-NHMec substrate, 1536-well (AID 1619); type: functional
# T2 sequence (Q8IL11 whole entry): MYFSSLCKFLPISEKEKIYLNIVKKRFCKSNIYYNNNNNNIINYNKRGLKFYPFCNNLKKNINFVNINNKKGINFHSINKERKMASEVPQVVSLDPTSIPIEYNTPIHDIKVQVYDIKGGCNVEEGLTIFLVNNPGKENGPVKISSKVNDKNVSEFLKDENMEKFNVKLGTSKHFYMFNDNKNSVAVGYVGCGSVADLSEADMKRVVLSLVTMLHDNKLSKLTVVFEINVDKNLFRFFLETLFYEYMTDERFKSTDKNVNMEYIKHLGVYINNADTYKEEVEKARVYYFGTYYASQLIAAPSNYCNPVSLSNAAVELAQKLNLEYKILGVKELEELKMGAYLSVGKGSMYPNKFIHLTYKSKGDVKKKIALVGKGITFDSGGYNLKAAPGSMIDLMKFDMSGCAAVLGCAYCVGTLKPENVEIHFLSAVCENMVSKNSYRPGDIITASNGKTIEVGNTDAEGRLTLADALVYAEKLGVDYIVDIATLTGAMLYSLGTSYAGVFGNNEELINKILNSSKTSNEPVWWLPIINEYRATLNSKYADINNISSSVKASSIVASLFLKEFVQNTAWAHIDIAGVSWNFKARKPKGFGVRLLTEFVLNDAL
# Procathepsin L [4] = biological target: T3, Procathepsin L (Homo sapiens, UniProt P07711); experiment: CTSL1 protease inhibition – biochemical, QFRET, 1536-well, counter-screen for M1/M17 aminopeptidase inhibitor project, dose response (AID 2214)
# [5] = biological target: T4, Heat shock factor protein 1 (Mus musculus, UniProt P38532); experiment: enhancement of HSF1-driven luciferase signal – cell-based, NIH3T3, luminescence, dose retest, confirmation (AID 435004); type: functional;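 further: stress induced by proteasome inhibitor MG132 added 30 min after compound; luciferase reporter driven by HSF1 response element in NIH3T3 cells; actives raise luminescence as potentiators of the MG132 stress response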
# T4 sequence (P38532 whole entry): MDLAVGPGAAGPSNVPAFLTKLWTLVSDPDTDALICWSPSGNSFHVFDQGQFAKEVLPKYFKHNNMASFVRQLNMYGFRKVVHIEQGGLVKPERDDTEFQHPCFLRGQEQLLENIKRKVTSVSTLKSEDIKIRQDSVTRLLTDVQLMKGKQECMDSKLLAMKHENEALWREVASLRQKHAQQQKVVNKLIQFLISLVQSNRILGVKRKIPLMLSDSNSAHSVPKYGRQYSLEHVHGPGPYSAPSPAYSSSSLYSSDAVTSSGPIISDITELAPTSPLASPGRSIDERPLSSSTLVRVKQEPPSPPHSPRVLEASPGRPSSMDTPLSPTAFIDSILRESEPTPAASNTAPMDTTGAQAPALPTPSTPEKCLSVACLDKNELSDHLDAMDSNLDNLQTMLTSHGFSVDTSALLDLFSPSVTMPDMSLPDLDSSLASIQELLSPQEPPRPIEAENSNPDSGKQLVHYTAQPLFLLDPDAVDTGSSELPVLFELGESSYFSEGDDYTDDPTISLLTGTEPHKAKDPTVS
# Aspartyl aminopeptidase [6] = biological target: T5, Aspartyl aminopeptidase (Plasmodium falciparum 3D7, UniProt Q8I2J3); experiment: Counterscreen for inhibitors of M1 and M17 aminopeptidases: QFRET-based biochemical high throughput dose response assay for inhibitors of the Plasmodium falciparum M18 Aspartyl Aminopeptidase (PFM18AAP). [Related PubChem assays: 1619 (Screening assay (M17LAP inhibitors).), 1445 (Screening assay (M1AAP inhibitors).)]
# T5 sequence (Q8I2J3 whole entry): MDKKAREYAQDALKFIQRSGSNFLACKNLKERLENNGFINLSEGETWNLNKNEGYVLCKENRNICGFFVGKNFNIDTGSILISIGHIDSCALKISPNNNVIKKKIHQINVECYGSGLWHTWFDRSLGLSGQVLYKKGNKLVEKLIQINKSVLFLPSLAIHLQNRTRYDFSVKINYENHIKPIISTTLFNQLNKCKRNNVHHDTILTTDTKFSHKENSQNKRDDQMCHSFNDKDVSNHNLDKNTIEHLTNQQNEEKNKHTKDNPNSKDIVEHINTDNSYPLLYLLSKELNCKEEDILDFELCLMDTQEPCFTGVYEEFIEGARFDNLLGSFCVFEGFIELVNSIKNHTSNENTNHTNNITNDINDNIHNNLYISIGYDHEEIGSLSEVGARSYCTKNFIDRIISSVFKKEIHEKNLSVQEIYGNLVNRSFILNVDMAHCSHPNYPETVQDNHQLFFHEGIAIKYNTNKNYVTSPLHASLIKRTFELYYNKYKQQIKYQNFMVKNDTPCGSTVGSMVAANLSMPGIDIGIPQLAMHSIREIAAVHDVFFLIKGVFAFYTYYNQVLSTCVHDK
# [7] = viability loss of HPDE-C7K cells – cell-based, fluorescence, HTS, primary screen (AID 431); type: functional; settings: Homo sapiens
# [8] = HPDE-C7 pancreatic duct cell viability loss – fluorescence, HTS (AID 430); type: functional, cell-based; settings: Homo sapiens
# Cytochrome P450 2C19 = Cytochrome P450 2C19 (Homo sapiens, UniProt P33261); experiment: qHTS Assay for Inhibitors and Substrates of Cytochrome P450 2C19. [Related pubchem assays: 410 ]; type: ADME; settings: read-out: Potency
# NADPH oxidase 1 = NADPH oxidase 1 (Homo sapiens, UniProt Q9Y5S8); experiment: Late-stage luminescence-based cell-based dose response assay to identify inhibitors of NADPH oxidase 1 (NOX1): Purchased analogs 2.; type: functional
# [9] = biological target: Peroxisome proliferator-activated receptor gamma/Nuclear receptor corepressor 2 (Homo sapiens, UniProt P37231+Q9Y618); experiment: Counterscreen for NR2E3 inverse agonists: TR-FRET-based biochemical high throughput dose response assay to identify inverse agonists of the interaction between peroxisome proliferator-activated receptor gamma (PPARg) and nuclear receptor co-repressor 2 (NCOR2).; type: functional
# [10] = biological target: T4, Heat shock factor protein 1; experiment: decrease of HSF1-responsive luciferase luminescence – cell-based, NIH3T3, dose retest, confirmation (AID 2382); type: functional;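 further: NIH3T3 fibroblasts with HSF1-driven luciferase reporter stressed by proteasome inhibitor MG132; luminescence from HSF1-driven luciferase expression after 8 hours of MG132 stress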
# [11] = biological target: Photoreceptor-specific nuclear receptor (Homo sapiens, UniProt Q9Y5X4); experiment: ligands suppressing NR2E3 nuclear receptor activity – biochemical, TR-FRET, dose response (AID 463256); type: functional
# Vero [12] = experiment: cells; type: functional; settings: Chlorocebus sabaeus
# [13] = HepG2 cell cytotoxicity, dose response, cytotoxicity control for non-replicating M. tuberculosis project (AID 489018); type: functional; settings: Mycobacterium tuberculosis
# BJ [14] = experiment: BJ-TERT fibroblast viability loss – cell-based, RAS-independent, luminescence, dose response (AID 1933); type: functional; settings: Homo sapiens
# Nonstructural protein 1 = Nonstructural protein 1 (Influenza A virus, UniProt Q194T2); type: functional, Influenza A virus (A/California/07/2009(H1N1))
# BJ [15] = experiment: cells; type: functional, cell-based; settings: Homo sapiens
# [16] = Vero E6 cell cytotoxicity, dose response, cytotoxicity control for non-replicating M. tuberculosis project, secondary assay (AID 492998); type: functional, VeroE6; settings: Vero C1008
# BJ [17] = experiment: growth inhibition of engineered Ras-driven BJ cells – cell-based, alamar blue fluorescence, cherrypicked samples, dose response (AID 2631); type: functional; settings: Homo sapiens;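 further: confirmatory dose-response assay in RAS-dependent BJ fibroblasts engineered with TERT, LT and ST, with cytotoxicity read by fluorescence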
# cells = type: functional
# [18] = DRD fibroblast viability loss – cell-based, non-viral oncogenic, luminescence, dose response (AID 1934); type: functional; settings: Homo sapiens
# BJ [19] = experiment: BJ-TERT-LT-ST fibroblast viability loss – cell-based, RAS-independent, luminescence, dose response (AID 1935); type: functional; settings: Homo sapiens;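 further: BJ fibroblasts immortalized with TERT plus LT and ST oncogenes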
# Vero [20] = experiment: cells; type: functional, cell-based; settings: Chlorocebus sabaeus
# [21] = THP-1 cell cytotoxicity, dose response, cytotoxicity control for non-replicating M. tuberculosis project (AID 489025); type: functional
# INS1 = experiment: INS-1E survival protection against cytokine death – cell-based, luminescence, retest, dose response (AID 449756); type: functional; settings: Rattus norvegicus;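 further: cell death triggered by IL-1 beta plus TNF-alpha plus IFN-gamma mixture; protective hits raise ATP signal compared with cytokine alone wells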
# [22] = Luminescence-based dose response cell-based high throughput screening assay for cytotoxic compounds using the IEC-6 intestinal epithelial cell line. [Related pubchem assays: 1858 (Summary AID.), 1825 (Counterscreen.), 1907 (Confirmation screen.)]; type: functional
# Aspartyl aminopeptidase [23] = biological target: T5, Aspartyl aminopeptidase
# Paired box protein Pax-8 = Paired box protein Pax-8 (Homo sapiens, UniProt Q06710); experiment: PAX8 transcriptional activity inhibition in RMG-I – RMG-I cells, luciferase, cherry-pick, dose response (AID 687027); type: functional, cell-based;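 further: luciferase reporter driven by Pax8 target thyroperoxidase promoter measured by SteadyGlo luminescence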
# Vero [24] = experiment: mammalian cell viability reduction – secondary assay, cytotoxicity control for West Nile virus antiviral project, dose response (AID 1650); type: functional; settings: Chlorocebus sabaeus
# Vero [25] = experiment: inhibition of WNV-induced cytopathic effect – cell-based, CPE readout (AID 1621); type: functional; settings: Chlorocebus sabaeus
# [26] = biological target: T6, Microphthalmia-associated transcription factor (Homo sapiens, UniProt O75030); experiment: reducers of TRPM1 reporter luminescence, concentration series – cell-based, SK-MEL-5, cherry-picked, set 3, MITF inhibitor project, dose response (AID 493073); type: functional;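 further: SK-MEL-5 melanoma cells with luciferase driven by the MITF target TRPM1 promoter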
# T6 sequence (O75030 whole entry): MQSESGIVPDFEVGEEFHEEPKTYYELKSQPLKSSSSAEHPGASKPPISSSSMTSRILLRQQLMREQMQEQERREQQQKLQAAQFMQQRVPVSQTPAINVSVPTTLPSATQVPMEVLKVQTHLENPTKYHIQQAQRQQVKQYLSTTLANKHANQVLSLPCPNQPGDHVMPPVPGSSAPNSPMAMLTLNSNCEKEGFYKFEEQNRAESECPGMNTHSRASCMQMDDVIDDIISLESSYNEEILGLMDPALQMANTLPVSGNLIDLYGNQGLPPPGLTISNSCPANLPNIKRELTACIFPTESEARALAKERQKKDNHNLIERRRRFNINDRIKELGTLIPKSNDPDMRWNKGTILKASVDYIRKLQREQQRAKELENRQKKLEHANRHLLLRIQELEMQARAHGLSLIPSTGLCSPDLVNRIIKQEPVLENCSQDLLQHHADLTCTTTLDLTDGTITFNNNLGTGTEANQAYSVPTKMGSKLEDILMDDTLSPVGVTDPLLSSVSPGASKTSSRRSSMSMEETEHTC
# [27] = fluconazole-exposed Candida albicans growth modulators – fluorescence, retest, confirmation (AID 2467); type: functional, cell-based
# Procathepsin L [28] = biological target: T3, Procathepsin L
# [29] = NIH-3T3 fibroblast cytotoxicity, dose response, cytotoxicity control, cell-based, fluorescence, Alamar Blue, secondary assay (AID 2327); type: functional;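 further: NIH-3T3 mouse fibroblasts cultured with fluconazole at 8 µg/mL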
# T3 sequence (P07711 whole entry): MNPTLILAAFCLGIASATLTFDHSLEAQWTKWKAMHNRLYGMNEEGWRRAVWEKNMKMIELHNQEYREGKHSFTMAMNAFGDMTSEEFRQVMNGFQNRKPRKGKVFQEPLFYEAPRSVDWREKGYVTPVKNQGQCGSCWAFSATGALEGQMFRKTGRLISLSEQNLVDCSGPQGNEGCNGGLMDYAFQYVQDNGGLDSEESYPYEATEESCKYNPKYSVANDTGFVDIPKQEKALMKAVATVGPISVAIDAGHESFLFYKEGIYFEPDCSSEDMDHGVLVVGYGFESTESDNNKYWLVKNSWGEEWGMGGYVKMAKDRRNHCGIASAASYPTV
# Chain of Nonstructural protein 1 (Q194T2 whole entry): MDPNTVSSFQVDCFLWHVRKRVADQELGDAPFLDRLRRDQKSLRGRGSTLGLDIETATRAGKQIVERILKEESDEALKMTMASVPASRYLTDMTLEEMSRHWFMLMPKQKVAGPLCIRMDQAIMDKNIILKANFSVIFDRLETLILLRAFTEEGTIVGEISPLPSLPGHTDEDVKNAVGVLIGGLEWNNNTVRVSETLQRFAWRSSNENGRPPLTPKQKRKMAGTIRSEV
# Chain of NADPH oxidase 1 (Q9Y5S8 whole entry): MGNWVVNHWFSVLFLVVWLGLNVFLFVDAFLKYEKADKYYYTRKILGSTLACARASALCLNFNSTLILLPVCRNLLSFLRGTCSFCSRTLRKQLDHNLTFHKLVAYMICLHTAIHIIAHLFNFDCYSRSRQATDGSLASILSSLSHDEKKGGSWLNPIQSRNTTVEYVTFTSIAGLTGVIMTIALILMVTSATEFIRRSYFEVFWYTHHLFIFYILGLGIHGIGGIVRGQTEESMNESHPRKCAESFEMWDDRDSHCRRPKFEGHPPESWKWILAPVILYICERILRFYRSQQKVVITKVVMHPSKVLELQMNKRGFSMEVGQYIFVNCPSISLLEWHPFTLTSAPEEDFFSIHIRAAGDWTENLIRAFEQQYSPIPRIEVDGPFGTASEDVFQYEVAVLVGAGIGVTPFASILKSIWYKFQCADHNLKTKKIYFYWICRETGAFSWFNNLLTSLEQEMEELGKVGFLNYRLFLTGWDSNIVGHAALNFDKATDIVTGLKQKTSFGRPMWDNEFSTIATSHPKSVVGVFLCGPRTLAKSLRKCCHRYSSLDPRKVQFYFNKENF
# Chain of Peroxisome proliferator-activated receptor gamma/Nuclear receptor corepressor 2 (P37231 whole entry): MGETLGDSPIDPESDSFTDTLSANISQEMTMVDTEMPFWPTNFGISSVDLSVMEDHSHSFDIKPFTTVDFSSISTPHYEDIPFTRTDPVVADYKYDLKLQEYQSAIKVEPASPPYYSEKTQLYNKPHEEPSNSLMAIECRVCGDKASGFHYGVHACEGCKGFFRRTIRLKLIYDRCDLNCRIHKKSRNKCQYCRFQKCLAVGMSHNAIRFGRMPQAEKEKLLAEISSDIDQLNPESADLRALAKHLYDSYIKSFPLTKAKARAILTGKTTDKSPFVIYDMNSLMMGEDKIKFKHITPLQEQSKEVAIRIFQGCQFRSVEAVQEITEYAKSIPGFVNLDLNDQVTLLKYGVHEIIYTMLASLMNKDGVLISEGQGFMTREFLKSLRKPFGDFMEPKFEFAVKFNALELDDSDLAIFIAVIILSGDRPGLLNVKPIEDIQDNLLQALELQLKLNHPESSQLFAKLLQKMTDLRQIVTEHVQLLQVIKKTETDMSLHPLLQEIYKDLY
# Chain of Peroxisome proliferator-activated receptor gamma/Nuclear receptor corepressor 2 (Q9Y618 whole entry): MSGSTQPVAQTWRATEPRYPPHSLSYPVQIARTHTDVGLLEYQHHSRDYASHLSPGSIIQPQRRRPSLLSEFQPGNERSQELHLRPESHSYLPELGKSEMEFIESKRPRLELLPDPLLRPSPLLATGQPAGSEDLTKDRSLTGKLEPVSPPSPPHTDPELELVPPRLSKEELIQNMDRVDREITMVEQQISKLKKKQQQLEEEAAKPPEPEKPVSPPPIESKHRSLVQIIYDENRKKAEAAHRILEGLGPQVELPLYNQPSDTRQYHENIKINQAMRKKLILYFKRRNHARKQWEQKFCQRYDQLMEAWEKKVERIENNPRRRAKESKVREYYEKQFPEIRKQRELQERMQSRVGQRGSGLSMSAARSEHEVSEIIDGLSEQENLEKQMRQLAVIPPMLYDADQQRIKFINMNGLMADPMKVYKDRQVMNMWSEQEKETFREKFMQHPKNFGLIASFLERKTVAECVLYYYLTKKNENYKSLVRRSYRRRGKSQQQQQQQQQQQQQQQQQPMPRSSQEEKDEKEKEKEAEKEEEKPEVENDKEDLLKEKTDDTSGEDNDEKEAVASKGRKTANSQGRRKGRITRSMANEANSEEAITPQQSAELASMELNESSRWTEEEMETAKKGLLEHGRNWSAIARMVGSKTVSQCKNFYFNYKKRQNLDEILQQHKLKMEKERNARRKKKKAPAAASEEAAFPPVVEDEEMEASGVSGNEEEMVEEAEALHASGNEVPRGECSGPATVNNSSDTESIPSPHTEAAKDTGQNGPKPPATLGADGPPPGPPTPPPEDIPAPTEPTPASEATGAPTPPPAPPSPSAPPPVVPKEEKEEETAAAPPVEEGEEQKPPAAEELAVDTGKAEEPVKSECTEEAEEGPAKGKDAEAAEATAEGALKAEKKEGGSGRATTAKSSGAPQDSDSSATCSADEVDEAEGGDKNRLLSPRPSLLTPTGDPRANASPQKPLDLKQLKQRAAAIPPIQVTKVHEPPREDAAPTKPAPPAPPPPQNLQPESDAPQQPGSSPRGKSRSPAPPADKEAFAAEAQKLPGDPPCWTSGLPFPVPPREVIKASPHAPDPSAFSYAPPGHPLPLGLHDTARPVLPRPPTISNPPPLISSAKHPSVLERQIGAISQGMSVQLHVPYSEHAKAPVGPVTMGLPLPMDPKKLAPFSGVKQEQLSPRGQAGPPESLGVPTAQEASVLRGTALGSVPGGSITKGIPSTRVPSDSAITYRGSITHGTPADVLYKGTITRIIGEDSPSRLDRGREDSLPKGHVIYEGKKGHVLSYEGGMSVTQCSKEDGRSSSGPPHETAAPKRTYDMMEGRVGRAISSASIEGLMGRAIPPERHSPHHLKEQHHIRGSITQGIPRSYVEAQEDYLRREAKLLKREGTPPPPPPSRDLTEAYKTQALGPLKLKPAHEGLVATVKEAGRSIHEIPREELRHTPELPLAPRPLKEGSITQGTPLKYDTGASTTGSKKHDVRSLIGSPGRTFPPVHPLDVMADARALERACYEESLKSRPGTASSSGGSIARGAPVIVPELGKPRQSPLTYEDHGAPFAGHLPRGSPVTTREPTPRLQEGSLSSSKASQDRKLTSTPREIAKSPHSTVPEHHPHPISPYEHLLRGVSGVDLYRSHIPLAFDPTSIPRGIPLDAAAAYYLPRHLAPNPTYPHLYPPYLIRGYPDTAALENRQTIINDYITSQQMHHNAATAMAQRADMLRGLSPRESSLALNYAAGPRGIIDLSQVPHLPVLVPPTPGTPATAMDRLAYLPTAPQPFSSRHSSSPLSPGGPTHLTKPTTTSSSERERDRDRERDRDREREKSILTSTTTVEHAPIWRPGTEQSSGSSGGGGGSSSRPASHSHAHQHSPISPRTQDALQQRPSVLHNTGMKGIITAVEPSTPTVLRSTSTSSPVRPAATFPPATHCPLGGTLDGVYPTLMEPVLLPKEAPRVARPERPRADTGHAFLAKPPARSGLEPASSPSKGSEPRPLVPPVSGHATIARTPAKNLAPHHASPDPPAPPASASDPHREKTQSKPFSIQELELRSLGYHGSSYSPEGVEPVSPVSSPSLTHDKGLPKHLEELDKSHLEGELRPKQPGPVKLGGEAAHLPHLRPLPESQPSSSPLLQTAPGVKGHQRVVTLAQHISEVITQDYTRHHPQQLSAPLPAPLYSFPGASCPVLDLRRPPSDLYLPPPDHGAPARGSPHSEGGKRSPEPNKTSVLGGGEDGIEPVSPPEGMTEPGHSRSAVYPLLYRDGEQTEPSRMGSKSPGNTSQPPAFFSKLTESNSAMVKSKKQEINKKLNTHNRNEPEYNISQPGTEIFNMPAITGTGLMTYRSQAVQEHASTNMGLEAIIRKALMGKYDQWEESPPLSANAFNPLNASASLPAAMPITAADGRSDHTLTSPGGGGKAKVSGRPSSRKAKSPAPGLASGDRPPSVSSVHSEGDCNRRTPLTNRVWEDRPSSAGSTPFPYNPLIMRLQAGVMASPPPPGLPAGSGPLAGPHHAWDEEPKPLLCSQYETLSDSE
# Chain of Paired box protein Pax-8 (Q06710 whole entry): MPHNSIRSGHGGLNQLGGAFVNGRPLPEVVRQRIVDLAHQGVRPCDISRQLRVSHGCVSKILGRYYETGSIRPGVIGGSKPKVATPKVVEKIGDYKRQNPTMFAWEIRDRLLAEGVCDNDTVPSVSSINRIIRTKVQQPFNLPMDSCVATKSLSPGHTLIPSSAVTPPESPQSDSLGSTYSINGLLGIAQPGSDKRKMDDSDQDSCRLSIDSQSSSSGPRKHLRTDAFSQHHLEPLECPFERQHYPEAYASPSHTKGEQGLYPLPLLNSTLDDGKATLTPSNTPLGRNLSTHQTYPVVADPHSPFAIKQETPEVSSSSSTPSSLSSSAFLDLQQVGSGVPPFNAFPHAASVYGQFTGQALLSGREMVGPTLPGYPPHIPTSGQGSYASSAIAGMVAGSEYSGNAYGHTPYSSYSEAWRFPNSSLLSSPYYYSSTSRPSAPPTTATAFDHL
# Chain of Muscarinic acetylcholine receptor M1 (P08482 whole entry): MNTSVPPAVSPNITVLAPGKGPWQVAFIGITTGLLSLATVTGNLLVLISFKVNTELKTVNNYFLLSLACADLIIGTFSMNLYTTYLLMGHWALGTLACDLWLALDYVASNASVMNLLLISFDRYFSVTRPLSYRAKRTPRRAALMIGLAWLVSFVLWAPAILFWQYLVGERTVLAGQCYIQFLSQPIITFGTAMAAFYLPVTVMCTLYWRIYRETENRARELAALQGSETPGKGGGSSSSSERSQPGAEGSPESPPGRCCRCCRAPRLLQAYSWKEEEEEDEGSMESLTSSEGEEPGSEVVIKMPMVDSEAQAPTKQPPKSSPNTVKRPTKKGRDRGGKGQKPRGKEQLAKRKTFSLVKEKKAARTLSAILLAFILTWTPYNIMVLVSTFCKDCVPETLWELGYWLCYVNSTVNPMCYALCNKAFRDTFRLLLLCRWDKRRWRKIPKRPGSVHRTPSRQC
smiles,measurement,setting,value
Cc1cc(NC(=O)CS(=O)(=O)c2cn(Cc3cccc(F)c3)c3ccccc23)no1,EC50,[1],5.32 µM (active)
Brc1ccc(-c2nnc3ccc(N4CCN(c5ccccc5)CC4)nn23)cc1,IC50,Bcl-2-related protein A1 [2],8.88 µM (active)
same,IC50,Bcl-2-related protein A1 [3],> 100 µM (not active)
O=C(CSc1nc(O)cc(=O)n1-c1ccccc1)Nc1ccc2c3c(cccc13)CC2,IC50,Leucine aminopeptidase,1.45 µM (active)
same,IC50,Procathepsin L [4],> 59.6 µM (not active)
same,EC50,[5],> 260 µM (inactive)
same,IC50,Aspartyl aminopeptidase [6],> 73.5 µM (not active)
O=S(=O)(c1ccc(Cl)c(Cl)c1)N1CCc2nc3ccccc3n2CC1,EC50,[7],> 20 µM (not active)
same,EC50,[8],490 nM (active)
O=c1cc(-c2ccc(O)cc2O)oc2ccccc12,AC50,Cytochrome P450 2C19,6.31 µM (inconclusive)
C=C(NNc1c(F)c(F)nc(F)c1F)c1ccc(-n2cncn2)cc1,IC50,NADPH oxidase 1,> 17 µM (not active)
O=C(CCCCCn1c(=S)[nH]c2cc3c(cc2c1=O)OCO3)N1CCN(C(=O)c2ccco2)CC1,IC50,[9],> 39.8 µM (not active)
same,EC50,[10],> 195 µM (not active)
same,IC50,[11],3.68 µM (active)
COc1ccc(C(=O)N/N=C(\C)c2ccccn2)cc1OC,CC50,Vero [12],2.83 µM (active)
same,CC50,[13],9.24 µM (active)
same,EC50,BJ [14],9.02 µM (active)
same,IC50,Nonstructural protein 1,2.93 µM (active)
same,EC50,BJ [15],2.07 µM (active)
same,CC50,[16],2.88 µM (active)
same,EC50,BJ [17],1.23 µM (active)
same,IC50,cells,3.01 µM (active)
same,EC50,[18],5.69 µM (active)
same,EC50,BJ [19],4.38 µM (active)
same,IC50,Vero [20],> 25 µM (active)
same,CC50,[21],822 nM (active)
same,AC50,INS1,584 nM (active)
same,IC50,[22],937 nM (active)
BrC(=C\c1ccccc1)/C=N/n1cnnc1,IC50,Aspartyl aminopeptidase [23],1.89 µM (active)
same,AC50,Paired box protein Pax-8,3.84 µM (active)
same,CC50,Vero [24],6.4 µM (active)
same,IC50,Vero [25],39.2 µM (active)
same,AC50,[26],7.26 µM (active)
same,EC50,[27],1.01 µM (active)
same,IC50,Procathepsin L [28],> 59.6 µM (not active)
same,EC50,[29],> 150 µM (inconclusive)
